Measurements taken from patent US9775844B2, “Heterocyclic compounds and uses thereof” (Infinity Pharmaceuticals, Inc., priority 2014, dated 2017).
Like-named read-outs stand apart in the source and are kept apart here.

Experiments:
LLC tumor brei = experiment: Lewis Lung Carcinoma (LLC tumor brei) model; assay type: in vivo, mouse; details: single agent, FIG. 25A/25B
Procedure: Compound BB was tested in the Lewis Lung Carcinoma model, which is known in the art and briefly described hereinabove.
LLC tumor brei model was prepared and injected subcutaneously into a mouse in the hind flank region. The tumor brei was prepared as follows. LL2-Luc tumor cells were grown in culture in DMEM+10% FBS. Cells were implanted @ 1×10^6 cells/100 uL SC in the flank of C57 Albino mice (male) When tumors reached 1000 mm3, tumors were harvested. Only the white, living tissue was harvested. Any material containing visable blood or necrotic area was isolated away from the tumor tissue. Tumor tissue was placed in a Dounce tissue homoginized with 5 mLs of warm DMEM (no FBS). About 1-2 grams of tumor tissue was collected, homogenized, pooled into 50 mL falcon tube, and cells were counted. Cells were spinned @ 12,000 RPM, and FBS was pooled off. Cells were resuspended to equal 1×10^7 cells/mL with sterile PBS. 100 uL of cells/mouse SC at the hind flank region were implanted. This process was repeated one more time before conducting brei tumor efficacy study.

[1] = Pharmacokinetics in rat, oral; assay type: in vivo
Text: Compound BB's oral exposure is high in rat, dog and monkey. Good oral bioavailability and low clearance in rodent and non-rodent animal species results in high oral exposure.

[2] = Dose-exposure proportionality; details: in vivo
4T1 breast cancer = experiment: Subcutaneous 4T1 breast cancer model; assay type: in vivo
[3] = Expected oral half-life in humans (from animal data); details: human, based on rat, dog, monkey data
[4] = system: CD11b+ myeloid cells in 4T1 tumors; experiment: Immunohistochemistry of CD11b / CD68 myeloid cells in 4T1 tumors; assay type: in vivo, mouse; details: vs vehicle/controls
Procedure: Immunohistochemistry was performed to determine the distribution of immune cells within the tumor. In particular, CD11b myeloid cells were examined, as were regulatory vs. effector T cells (CD3, CD4, CD8, FoxP3). Briefly, IHC for CD11b or CD68+ was performed as follows. CD11b antibodies were available from Abcam, clone I-70, Catalong # ab 8878. CD68 antibodies were available from Abcam, clone FA-11, catalog # ab 53444. Tissues were fixed in cold methanol, air-dried, and then stained using a Res IHC Omni-UltraMap HRP XT protocol.
Without being bound by a particular theory, the decrease in the pro-tumorigenic tumor associated myeloid cells can result in activation of cytotoxic T-cells and anti-tumor immunity. […] When the images were quantified as CD11b+ cells per total viable cells (FIG. 37E), a Student t-Test p-value of 0.0355 was obtained when comparing the Compound BB-treated cells to controls. When the images were quantified as CD11b+ stained area per total visible area (FIG. 37F), a Student t-Test p-value of 0.0441 was obtained when comparing the Compound BB-treated cells to controls. […] When the images were quantified as CD11b+ cells per total viable cells (FIG. 37G), a Student t-Test p-value of 0.0864 (d16) or 0.3967 (d22) was obtained when comparing the Compound BB-treated cells to controls. […]

pKa = assay type: physicochemical
Text: (§1) The phyiscochemical properties of Compound BB are drug-like, and suitable for use of the compound as a drug.

[5] = Stability in simulated gastric fluid; assay type: physicochemical; details: 38°
Text: as §1

CT26 colon carcinoma = experiment: CT26 allograft model of mouse colon cancer; assay type: in vivo; details: FIG. 28
Procedure: CT26 is an N-nitroso-N-methylurethane-(NNMU) induced, undifferentiated colon carcinoma cell line. It was cloned to generate the cell line designated CT26.WT […] number CRL-2638). 5-6 week old female, Balb/c mice (Jackson Labs) were implanted subcutaneously with 5×10^5 CT26 cells in 200 μl PBS. CT26 cells were cultured in DMEM supplemented with 10% FBS.

[6] = Unbound concentrations in tumor and plasma, LLC model, 12 days daily oral administration; assay type: in vivo, mouse; details: Plasma, 12 days daily oral administration in NMP solution, read-out: Free Conc
Text: Below is a table of details:

Farage cell line = experiment: Combination isobologram in Farage cell line; assay type: cell-based; details: combination of Compound AA and Compound BB
[7] = Mouse pharmacokinetics, oral single and repeat dose; assay type: in vivo; details: female mice, 2, 7.5, 15 mg/kg PO
Procedure: Animals were weighed daily prior to dosing. […] On subsequent dosing days, the animals' condition was noted prior to dosing; the animals were observed within 4 hours of dosing, and at the end of the day.
Samples were collected at pre-dose 0.25, 0.5, 1, 2, 4, 6 and 24 h following the first dose on day 1 and pre-dose (trough), 0.25, 0.5, 1, 2, 4, 6 and 24 h following the final dose on day 3 Animals received a single oral dose daily for 3 consecutive days. Blood was collected by retro-orbital bleeding for all time points on day 1. All other blood sampling was collected by a cardiac puncture. Blood was collected into K2EDTA tubes and placed on wet ice. Within 15 min of collection, the sample was centrifuged at 10,000 rpm at 4° C. for 10 min in a bench top centrifuge and the plasma transferred to a new microcentrifuge tube.
A similar study was carried out using Compound 88. […] Below is a table that details the results for Compound 88: […]

C[C@H](NC(=O)c1c(N)nn2cccnc12)c1cc2cccc(C#Cc3cnn(C)c3)c2c(=O)n1-c1ccccc1 [Compound BB]
tumor growth, Lewis Lung Carcinoma model (LLC tumor brei): single agent activity | oral exposure (plasma concentrations within 24 hours) ([1]; rat, 7.5 mg/kg oral): high | dose-exposure proportionality (AUC 0-last) ([1]; rats, oral 10, 25, and 100 mg/kg): good dose-exposure proportionality | dose-exposure proportionality [2]: exhibits dose-exposure proportionality | single agent activity (4T1 breast cancer): demonstrated single agent activity | tumor growth (4T1 breast cancer; co-administration with docetaxel, paclitaxel, or 5-FU): achieved a further reduction in tumor growth | half-life [3]: 10 to 13 h | CD11b+ cells in 4T1 tumors (IHC) [4]: statistically significant reduction in CD11b+ cells | pKa (pKa): no ionization from pH 3-10 | stability in simulated gastric fluid [5]: > 4 h | MDSC expansion after cyclophosphamide treatment (CT26 colon carcinoma): decreased | concentration at 2 h ([6]; C57 Albino, mouse, 3 mg/kg, 2 h): 25.9 nM | concentration at 2 h ([6]; C57 Albino, mouse, 7.5 mg/kg, 2 h): 99 nM | concentration at 2 h ([6]; C57 Albino, mouse, 15 mg/kg, 2 h): 157 nM | concentration at 2 h ([6]; 3 mg/kg, Trough): 0.75 nM | concentration at 2 h ([6]; 7.5 mg/kg, Trough): 8.99 nM | concentration at 2 h ([6]; 15 mg/kg, Trough): 8.39 nM | combination effect (isobologram) (Farage cell line): synergistic effect | stability in serum (unbound plasma concentration time course) [7]: good stability in serum
